Measured values as given in US6410706B1, “Nucleic acid encoding chitin-binding receptor kinase” (Korea Research Institute of Bioscience and Biotechnology, priority 1999, dated 2002).

Target: recombinant chitinase domain of receptor kinase CHRK1 (amino acid residues 1 to 359 of SEQ ID NO: 1) (Nicotiana tabacum, UniProt Q9SWX8)
Assay: Fluorescence polarization chitin-binding assay with Scatchard plot analysis
Conditions: excitation 318 nm, emission 373 nm; for binding to the chitinase domain, seen as change in polarization value: fluorescence polarization, thioredoxin control did not increase
Description: The chitinase activity and the chitin-binding activity of receptor kinase CHRK1 in this invention are analysed using its recombinant chitinase domain. Consequently, the recombinant chitinase domain has a chitin-binding activity and lacks a chitinase activity.
In order to examine the chitinase activity of receptor kinase […], the recombinant chitinase domain corresponding to amino acid residues 1 to 359 of SEQ. ID NO: 1 was purified from E. coli, and its chitinase activity was estimated by fluorescence polarization assay.
As a result of Scratchard plot analysis, dissociation constant (kd) value of MU-chitotriose was estimated to be 800 nM. In case of using MU-chitotriose or MU-chitotetrose probe without fluorophor as a competitor, binding activity between the chitinase domain and MU-chitotriose or MU-chitotetrose conjugated with fluorophor was inhibited by the competitor. Consequently, the initial polarization value was decreased.

Sequence of recombinant chitinase domain of receptor kinase CHRK1 (amino acid residues 1 to 359 of SEQ ID NO: 1) (Q9SWX8 entry or part of it): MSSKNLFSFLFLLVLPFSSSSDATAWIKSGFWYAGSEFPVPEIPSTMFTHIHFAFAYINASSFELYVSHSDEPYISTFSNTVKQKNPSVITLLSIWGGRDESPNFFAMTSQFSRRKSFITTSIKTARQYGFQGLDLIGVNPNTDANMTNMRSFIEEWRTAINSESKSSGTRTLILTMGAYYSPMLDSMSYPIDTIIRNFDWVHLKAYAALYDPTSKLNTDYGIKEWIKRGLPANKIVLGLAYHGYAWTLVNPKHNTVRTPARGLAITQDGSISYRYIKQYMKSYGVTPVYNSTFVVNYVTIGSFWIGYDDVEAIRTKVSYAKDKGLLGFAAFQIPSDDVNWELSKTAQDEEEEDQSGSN

SMILES | Kd (Scratchard plot analysis of fluorescence polarization, chitinase domain purified from E. coli, read-out: dissociation constant (kd)) | binding to the chitinase domain, seen as change in polarization value
CC(=O)N[C@H]1[C@H](Oc2ccc3c(C)cc(=O)oc3c2)O[C@H](CO)[C@@H](O[C@@H]2O[C@H](CO)[C@@H](O[C@@H]3O[C@H](CO)[C@@H](O)[C@H](O)[C@H]3NC(C)=O)[C@H](O)[C@H]2NC(C)=O)[C@@H]1O [MU-chitotriose] | 800 nM | increased polarization value
CC(=O)NC1C(OC2C(CO)OC(OC3C(CO)OC(OC4C(CO)OC(Oc5ccc6c(C)cc(=O)oc6c5)C(NC(C)=O)C4O)C(NC(C)=O)C3O)C(NC(C)=O)C2O)OC(CO)C(O)C1O (stereo not drawn) [Mu-chitotetrose] | – | increased polarization value
